Experimental data as given in PMC7044277 (Nature Communications, 2020).
Several values for one entry are separate records, joined by “and”; a condition that tells them apart may be missing. Equal entries are not always repeated.

Key:
Format in all cases: cell-based
[1] = target: T1, 320 non-olfactory GPCRs (Homo sapiens, UniProt O15552)
T1 construct: expressed in transfected cells; host or cells: HTLA cells

[2] = target: T2, 320 non-olfactory GPCRs (Homo sapiens, UniProt P35408); details: receptor PTGER4; replicate values, Fig_4g
T2 construct: expressed in transfected cells; host or cells: HTLA cells
T2 sequence (P35408 whole entry): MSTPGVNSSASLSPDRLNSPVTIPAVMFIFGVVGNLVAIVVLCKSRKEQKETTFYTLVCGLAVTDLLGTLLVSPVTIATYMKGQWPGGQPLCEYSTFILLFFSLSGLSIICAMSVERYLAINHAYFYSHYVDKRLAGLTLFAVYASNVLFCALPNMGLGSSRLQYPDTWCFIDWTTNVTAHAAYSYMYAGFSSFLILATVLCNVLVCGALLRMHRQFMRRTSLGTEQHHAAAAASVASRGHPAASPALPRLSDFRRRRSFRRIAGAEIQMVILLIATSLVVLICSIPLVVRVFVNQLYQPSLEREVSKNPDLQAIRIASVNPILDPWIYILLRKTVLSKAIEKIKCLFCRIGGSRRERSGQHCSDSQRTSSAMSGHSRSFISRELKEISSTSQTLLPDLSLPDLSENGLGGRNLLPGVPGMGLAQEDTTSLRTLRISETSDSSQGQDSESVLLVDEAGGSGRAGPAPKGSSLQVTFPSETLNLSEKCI

[3] = target: T3, 320 non-olfactory GPCRs (Homo sapiens, UniProt P41968); details: receptor MC3Rb; replicate values, Fig_4g
T3 construct: expressed in transfected cells; host or cells: HTLA cells
T3 sequence (P41968 whole entry): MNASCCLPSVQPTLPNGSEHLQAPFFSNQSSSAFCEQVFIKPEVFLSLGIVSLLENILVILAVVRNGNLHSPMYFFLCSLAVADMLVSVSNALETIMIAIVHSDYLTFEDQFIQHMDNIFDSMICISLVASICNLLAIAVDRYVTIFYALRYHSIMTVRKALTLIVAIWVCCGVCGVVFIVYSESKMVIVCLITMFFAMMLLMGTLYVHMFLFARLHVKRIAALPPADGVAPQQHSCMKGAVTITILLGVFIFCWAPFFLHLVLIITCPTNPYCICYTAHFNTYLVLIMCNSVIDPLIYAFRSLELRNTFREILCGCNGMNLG

[4] = target: T4, 320 non-olfactory GPCRs (Homo sapiens, UniProt Q96AM1); details: receptor MRGPRF; replicate values, Fig_4g
T4 construct: expressed in transfected cells; host or cells: HTLA cells
T4 sequence (Q96AM1 whole entry): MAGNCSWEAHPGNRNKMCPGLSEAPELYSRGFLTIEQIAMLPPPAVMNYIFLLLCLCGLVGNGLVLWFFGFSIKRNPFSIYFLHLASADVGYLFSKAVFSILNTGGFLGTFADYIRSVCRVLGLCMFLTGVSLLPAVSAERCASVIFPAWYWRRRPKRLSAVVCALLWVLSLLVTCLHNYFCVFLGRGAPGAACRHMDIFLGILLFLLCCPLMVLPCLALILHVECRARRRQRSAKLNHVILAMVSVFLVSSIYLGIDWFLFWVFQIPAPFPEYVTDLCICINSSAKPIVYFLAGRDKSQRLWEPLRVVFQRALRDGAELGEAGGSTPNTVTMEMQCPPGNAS
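Wherever Fold of Basal is given: compound tested at 1 µM final concentration.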
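Wherever GPCRome agonism screen response is given: fold over basal response of each receptor without drug.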

T1 sequence (O15552 whole entry): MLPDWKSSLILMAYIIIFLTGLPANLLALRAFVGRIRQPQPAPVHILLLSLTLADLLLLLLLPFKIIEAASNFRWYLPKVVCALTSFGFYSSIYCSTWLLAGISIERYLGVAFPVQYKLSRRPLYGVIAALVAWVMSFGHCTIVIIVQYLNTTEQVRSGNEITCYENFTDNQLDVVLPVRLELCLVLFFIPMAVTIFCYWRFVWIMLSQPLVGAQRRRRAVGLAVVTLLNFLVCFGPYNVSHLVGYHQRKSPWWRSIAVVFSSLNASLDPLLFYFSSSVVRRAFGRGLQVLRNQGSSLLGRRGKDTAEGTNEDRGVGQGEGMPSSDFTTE

CCOc1cccc2cc(C(C)NCC3(O)CCCCC3)oc12 (stereo not shown) [O4LE6]
Fold of Basal [1]: 0.7744 and 0.8932 and 0.7484 and 0.9767 | GPCRome agonism screen response [2]: 2.508 and 1.456 and 1.732 and 0.428 | GPCRome agonism screen response [3]: 1.102 and 1.23 and 1.725 and 1.228 | GPCRome agonism screen response [4]: 0.9496 and 0.9687 and 0.9252 and 0.5763
